Measurements as given in US20240108008A1, “COMPOSITIONS COMPRISING MESOSULFURON-METHYL AND TEHP” (BAYER AKTIENGESELLSCHAFT, priority 2020, published 2024).

Key:
[1] = system: harmful plants; test: Adjuvant effect on performance of mesosulfuron-methyl; type: in vivo; details: same application rate as tri(butoxyethyl) phosphate (TBEP)
[2] = system: TRZAW, winter wheat; test: Greenhouse selectivity trials, wheat crop injury post-emergence; type: in vivo, winter wheat (variety: Dekan); details: 2 kg of TEHP per hectare, in combination with mesosulfuron-methyl and/or a salt thereof
Description: The 00 damage (injury) indicated refers to the maximum damage observed in the respective crop.

In the case of CCCCC(CC)COP(=O)(OCC(CC)CCCC)OCC(CC)CCCC (centres unmarked) [TEHP, Tris(2-ethylhexyl) phosphate], the “effects as adjuvant in comparison to TBEP” value [1] is reported as “superior” and the “phytotoxic effects in crop plants such as wheat” value [2] is reported as “significant phytotoxic effects”.
